Results taken from PubChem BioAssay AID1259407 (Chemical Carcinogenesis Research Information System (CCRIS), 2018).
Calls of active or inactive are those of the source. How the calls were made is not given here.

Test system: CCRIS mutagenicity, Ames/micronucleus/aberration tests
Assay: CCRIS mutagenicity studies
[1] = Test System: AMES SALMONELLA TYPHIMURIUM, Strain/Indicator: TA98, Metabolic Activation: NONE, Method: STANDARD PLATE
[2] = Test System: AMES SALMONELLA TYPHIMURIUM, Strain/Indicator: TA98, Metabolic Activation: RAT, LIVER, S-9, AROCLOR 1254, Method: STANDARD PLATE
[3] = Test System: AMES SALMONELLA TYPHIMURIUM, Strain/Indicator: TA100, Metabolic Activation: NONE, Method: STANDARD PLATE
[4] = Test System: AMES SALMONELLA TYPHIMURIUM, Strain/Indicator: TA100, Metabolic Activation: RAT, LIVER, S-9, AROCLOR 1254, Method: STANDARD PLATE
[5] = Test System: AMES SALMONELLA TYPHIMURIUM, Strain/Indicator: TA1535, Metabolic Activation: NONE, Method: STANDARD PLATE
[6] = Test System: AMES SALMONELLA TYPHIMURIUM, Strain/Indicator: TA1535, Metabolic Activation: RAT, LIVER, S-9, AROCLOR 1254, Method: STANDARD PLATE
[7] = Test System: AMES SALMONELLA TYPHIMURIUM, Strain/Indicator: TA1537, Metabolic Activation: NONE, Method: STANDARD PLATE
[8] = Test System: AMES SALMONELLA TYPHIMURIUM, Strain/Indicator: TA1537, Metabolic Activation: RAT, LIVER, S-9, AROCLOR 1254, Method: STANDARD PLATE
[9] = Test System: AMES SALMONELLA TYPHIMURIUM, Strain/Indicator: TA1538, Metabolic Activation: NONE, Method: STANDARD PLATE
[10] = Test System: AMES SALMONELLA TYPHIMURIUM, Strain/Indicator: TA1538, Metabolic Activation: RAT, LIVER, S-9, AROCLOR 1254, Method: STANDARD PLATE

Structure (SMILES): CCCCC(CC)COC(=O)c1ccc(N(C)C)c([N+](=O)[O-])c1 (stereo unspecified)
- mutagenic call (Test System: AMES SALMONELLA TYPHIMURIUM, Strain/Indicator: TA98, Metabolic Activation: HAMSTER, LIVER, S-9, AROCLOR 1254 (10%), Method: STANDARD PLATE): active; positive
- mutagenic call (Test System: AMES SALMONELLA TYPHIMURIUM, Strain/Indicator: TA98, Metabolic Activation: HAMSTER, LIVER, S-9, AROCLOR 1254, Method: STANDARD PLATE): active; positive
- mutagenic call [1]: active; positive
- mutagenic call (Test System: AMES SALMONELLA TYPHIMURIUM, Strain/Indicator: TA98, Metabolic Activation: RAT, LIVER, S-9, AROCLOR 1254 (10%), Method: STANDARD PLATE): active; positive
- mutagenic call [2]: active; positive
- mutagenic call (Test System: AMES SALMONELLA TYPHIMURIUM, Strain/Indicator: TA100, Metabolic Activation: HAMSTER, LIVER, S-9, AROCLOR 1254 (10%), Method: STANDARD PLATE): inactive; negative
- mutagenic call (Test System: AMES SALMONELLA TYPHIMURIUM, Strain/Indicator: TA100, Metabolic Activation: HAMSTER, LIVER, S-9, AROCLOR 1254, Method: STANDARD PLATE): inactive; negative
- mutagenic call [3]: inactive; negative
- mutagenic call (Test System: AMES SALMONELLA TYPHIMURIUM, Strain/Indicator: TA100, Metabolic Activation: RAT, LIVER, S-9, AROCLOR 1254 (10%), Method: STANDARD PLATE): inactive; negative
- mutagenic call [4]: inactive; negative
- mutagenic call (Test System: AMES SALMONELLA TYPHIMURIUM, Strain/Indicator: TA1535, Metabolic Activation: HAMSTER, LIVER, S-9, AROCLOR 1254 (10%), Method: STANDARD PLATE): inactive; negative
- mutagenic call (Test System: AMES SALMONELLA TYPHIMURIUM, Strain/Indicator: TA1535, Metabolic Activation: HAMSTER, LIVER, S-9, AROCLOR 1254, Method: STANDARD PLATE): inactive; negative
- mutagenic call [5]: inactive; negative
- mutagenic call (Test System: AMES SALMONELLA TYPHIMURIUM, Strain/Indicator: TA1535, Metabolic Activation: RAT, LIVER, S-9, AROCLOR 1254 (10%), Method: STANDARD PLATE): inactive; negative
- mutagenic call [6]: inactive; negative
- mutagenic call (Test System: AMES SALMONELLA TYPHIMURIUM, Strain/Indicator: TA1537, Metabolic Activation: HAMSTER, LIVER, S-9, AROCLOR 1254 (10%), Method: STANDARD PLATE): active; positive
- mutagenic call (Test System: AMES SALMONELLA TYPHIMURIUM, Strain/Indicator: TA1537, Metabolic Activation: HAMSTER, LIVER, S-9, AROCLOR 1254, Method: STANDARD PLATE): active; positive
- mutagenic call [7]: active; positive
- mutagenic call (Test System: AMES SALMONELLA TYPHIMURIUM, Strain/Indicator: TA1537, Metabolic Activation: RAT, LIVER, S-9, AROCLOR 1254 (10%), Method: STANDARD PLATE): active; positive
- mutagenic call [8]: active; positive
- mutagenic call (Test System: AMES SALMONELLA TYPHIMURIUM, Strain/Indicator: TA1538, Metabolic Activation: HAMSTER, LIVER, S-9, AROCLOR 1254 (10%), Method: STANDARD PLATE): active; positive
- mutagenic call (Test System: AMES SALMONELLA TYPHIMURIUM, Strain/Indicator: TA1538, Metabolic Activation: HAMSTER, LIVER, S-9, AROCLOR 1254, Method: STANDARD PLATE): active; positive
- mutagenic call [9]: active; positive
- mutagenic call (Test System: AMES SALMONELLA TYPHIMURIUM, Strain/Indicator: TA1538, Metabolic Activation: RAT, LIVER, S-9, AROCLOR 1254 (10%), Method: STANDARD PLATE): active; positive
- mutagenic call [10]: active; positive

Structure (SMILES): CCCCCN(CCCCC)N=O
- mutagenic call (Test System: AMES SALMONELLA TYPHIMURIUM, Strain/Indicator: TA100, Metabolic Activation: RAT, LIVER, S-9, KC500 OR PHENOBARBITAL, Method: LIQUID SUSPENSION): active; positive
- mutagenic call (Test System: AMES SALMONELLA TYPHIMURIUM, Strain/Indicator: TA1530, Metabolic Activation: RAT, LIVER, S-9, Method: STANDARD PLATE): active; positive
- mutagenic call (Test System: CHINESE HAMSTER V-79, Strain/Indicator: V-79/8-AZAGUANINE, Metabolic Activation: CELL-MEDIATED, Method: STANDARD PLATE): active; positive

Structure (SMILES): CC(C)=CC1C(C(=O)OCN2C(=O)C3=C(CCCC3)C2=O)C1(C)C (stereo unspecified)
- mutagenic call (Test System: AMES SALMONELLA TYPHIMURIUM, Strain/Indicator: TA98): active; positive
- mutagenic call (Test System: AMES SALMONELLA TYPHIMURIUM, Strain/Indicator: TA98, Metabolic Activation: NONE): active; positive
- mutagenic call (Test System: AMES SALMONELLA TYPHIMURIUM, Strain/Indicator: TA98, Metabolic Activation: NONE, Method: MICROSUSPENSION): inactive; negative
- mutagenic call (Test System: AMES SALMONELLA TYPHIMURIUM, Strain/Indicator: TA98, Metabolic Activation: S-9, Method: MICROSUSPENSION): inactive; negative
- mutagenic call (Test System: AMES SALMONELLA TYPHIMURIUM, Strain/Indicator: TA100): active; positive
- mutagenic call (Test System: AMES SALMONELLA TYPHIMURIUM, Strain/Indicator: TA100, Metabolic Activation: NONE): inactive; negative
- mutagenic call (Test System: AMES SALMONELLA TYPHIMURIUM, Strain/Indicator: TA100, Metabolic Activation: NONE, Method: MICROSUSPENSION): inactive; negative
- mutagenic call (Test System: AMES SALMONELLA TYPHIMURIUM, Strain/Indicator: TA100, Metabolic Activation: S-9, Method: MICROSUSPENSION): inactive; negative

Structure (SMILES): CC(=O)CCCCn1c(=O)c2c(ncn2C)n(C)c1=O
- mutagenic call (End Point: IN VITRO CHROMOSOMAL ABERRATIONS, Test System: HUMAN PERIPHERAL BLOOD LYMPHOCYTES, Metabolic Activation: NONE): active; positive (structural changes)
- mutagenic call (End Point: IN VITRO CHROMOSOMAL ABERRATIONS, Test System: V79 CELLS, Metabolic Activation: NONE): active; positive (structural changes)
- mutagenic call (End Point: IN VITRO MICRONUCLEUS, Test System: HUMAN PERIPHERAL BLOOD LYMPHOCYTES, Metabolic Activation: NONE): active; positive
- mutagenic call (End Point: IN VITRO MICRONUCLEUS, Test System: V79 CELLS, Metabolic Activation: NONE): active; positive
- mutagenic call (Test System: CHINESE HAMSTER V-79, Strain/Indicator: V-79 (HGPRT)/6-THIOGUANINE, Metabolic Activation: NONE): inactive; negative
- mutagenic call (Test System: CHINESE HAMSTER V-79, Strain/Indicator: V-79 (HGPRT)/6-THIOGUANINE, Metabolic Activation: S-9): inactive; negative

Structure (SMILES): N#Cc1ccc(C(=O)ON(OCc2ccccc2)C(=O)c2ccccc2)cc1
- mutagenic call [3]: active; positive
- mutagenic call (Test System: AMES SALMONELLA TYPHIMURIUM, Strain/Indicator: TA100, Metabolic Activation: RAT, S-9, AROCLOR, Method: STANDARD PLATE): active; positive

Structure (SMILES): O=C([O-])[C@H](O)[C@@H](O)[C@H](O)[C@H](O)CO.O=C([O-])[C@H](O)[C@@H](O)[C@H](O)[C@H](O)CO.[Mn+2]
- mutagenic call [1]: inactive; negative
- mutagenic call [2]: inactive; negative
- mutagenic call [3]: inactive; negative
- mutagenic call [4]: inactive; negative
- mutagenic call [5]: inactive; negative
- mutagenic call [6]: inactive; negative
- mutagenic call [7]: inactive; negative
- mutagenic call [8]: inactive; negative
- mutagenic call [9]: inactive; negative
- mutagenic call [10]: inactive; negative
- mutagenic call (Test System: E. COLI, Strain/Indicator: WP2, Metabolic Activation: NONE, Method: STANDARD PLATE): inactive; negative
- mutagenic call (Test System: E. COLI, Strain/Indicator: WP2, Metabolic Activation: RAT, LIVER, S-9, AROCLOR 1254, Method: STANDARD PLATE): inactive; negative
